pEC50, pIC50: −log10 of the molar value.
How the values were obtained:
[1] = tested on: K-Ras G12C (NCI-H358 cells); assay: Potency assay: pERK in NCI-H358 cells; type: cell-based, human; conditions: Homo sapiens; NCI-H358 cells, 4 hours; read-out: pERK EC50 (H358 KRAS G12C)
Outline: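 Cells plated the day before were exposed for 4 h at 37° C, 5% CO2 to a 10-point, 3-fold DMSO dilution series (10 mM top stock), in duplicate. Phospho-ERK was read by AlphaLISA SureFire Ultra or by In-Cell Western with DRAQ5 DNA stain, and IC50 came from a 4-parameter sigmoidal fit.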

[2] = tested on: Capan-1 cells (K-Ras G12V); assay: CellTiter-Glo cell viability, Capan-1; type: cell-based, human; conditions: Homo sapiens, CAPAN-1, 120 h, K-Ras G12V, 5-day treatment; read-out: Capan-1 Cell Viability IC50
Outline: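 Compounds were dispensed directly onto seeded cells and incubated until day 5, then plates were equilibrated at room temperature for about 30 min before CellTiter-Glo luminescence readout. Signals were normalized as (sample/average DMSO)×100 and fitted with a four-parameter logistic model.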

KRAS G12S = KRAS G12S (Homo sapiens (Human), UniProt P01116+P62937, G12S); assay: Ras-Raf disruption/FRET/MOA assay (BRAF RBD, Cyclophilin A); type: biochemical; conditions: read-out: KRAS G12S FRET IC50
Protocol: (§1) Compound is present in plate wells as a 10-point 3-fold dilution series starting at a final concentration of 30 μM. After incubation at 25° C. for 3 hours, a mixture of Anti-His Eu—W1024 and anti-GST allophycocyanin is then added to assay sample wells at final concentrations of 10 nM and 50 nM, respectively, and the reaction incubated for an additional 1.5 hours. […] Compounds that facilitate disruption of a Ras: RAF complex are identified as those eliciting a decrease in the TR-FRET ratio relative to DMSO control wells.
(§2) Disruption of B-Raf Ras-Binding Domain (BRAF^RBD) Interaction with K-Ras by Compounds of the Invention (Also Called a FRET Assay or an MOA Assay)
(§3) Note—The following protocol describes a procedure for monitoring disruption of K-Ras G12C (GMP-PNP) binding to BRAF^RBD by a compound of the invention. This protocol may also be executed substituting other Ras proteins or nucleotides.
(§4) The purpose of this biochemical assay was to measure the ability of test compounds to facilitate ternary complex formation between a nucleotide-loaded K-Ras isoform and Cyclophilin A; the resulting ternary complex disrupts binding to a BRAF^RBD construct, inhibiting K-Ras signaling through a RAF effector. Data is reported as IC50 values.
(§5) In assay buffer containing 25 mM HEPES pH 7.3, 0.002% Tween20, 0.1% BSA, 100 mM NaCl and 5 mM MgCl2, tagless Cyclophilin A, His6-K-Ras-GMPPNP, and GST-BRAF^RBD were combined in a 384-well assay plate at final concentrations of 25 μM, 12.5 nM and 50 nM, respectively. Compound was present in plate wells as a 10-point 3-fold dilution series starting at a final concentration of 30 μM. After incubation at 25° C. for 3 hours, a mixture of Anti-His Eu—W1024 and anti-GST allophycocyanin was then added to assay sample wells at final concentrations of 10 nM and 50 nM, respectively, and the reaction incubated for an additional 1.5 hours. […] Compounds that facilitate disruption of a K-Ras: RAF complex were identified as those eliciting a decrease in the TR-FRET ratio relative to DMSO control wells.

KRAS WT = KRAS WT (Homo sapiens (Human), UniProt P01116+P62937); assay: as above; type: biochemical; conditions: read-out: KRAS WT FRET data IC50
Protocol: as §1, §2, §3, §4, §5

KRAS G13C = KRAS G13C (Homo sapiens (Human), UniProt P01116+P62937, G13C); assay: as above; type: biochemical; conditions: read-out: KRAS G13C FRET IC50
Protocol: as §1, §2, §3, §4, §5

KRAS G12V = KRAS G12V (Homo sapiens (Human), UniProt P01116+P62937, G12V); assay: as above; type: biochemical; conditions: read-out: KRAS G12V FRET IC50
Protocol: as §1, §2, §3, §4, §5

KRAS G12D = KRAS G12D (Homo sapiens (Human), UniProt P01116+P62937, G12D); assay: as above; type: biochemical; conditions: read-out: KRAS G12D FRET IC50
Protocol: as §1, §2, §3, §4, §5

KRAS G13D = KRAS G13D (Homo sapiens (Human), UniProt P01116+P62937, G13D); assay: as above; type: biochemical; conditions: read-out: KRAS G13D FRET data IC50
Protocol: as §1, §2, §3, §4, §5

KRAS G12C = KRAS G12C (Homo sapiens (Human), UniProt P01116+P62937, G12C); assay: as above; type: biochemical; conditions: read-out: KRAS G12C FRET IC50
Protocol: as §1, §2, §3, §4, §5

NRAS G12C = NRAS G12C (Homo sapiens (Human), UniProt P01111+P62937, G12C); assay: as above; type: biochemical; conditions: read-out: NRAS G12C FRET data IC50
Protocol: as §1, §2, §3, §4, §5

KRAS G12D, sequence (P01116 other isoform, or with tags, fused parts or gaps G12D): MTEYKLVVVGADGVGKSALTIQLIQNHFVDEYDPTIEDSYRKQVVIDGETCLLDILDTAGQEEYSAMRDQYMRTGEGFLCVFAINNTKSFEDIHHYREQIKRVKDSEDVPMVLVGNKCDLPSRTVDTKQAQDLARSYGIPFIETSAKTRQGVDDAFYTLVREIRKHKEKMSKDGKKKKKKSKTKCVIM
KRAS G12D, sequence (P62937 whole entry): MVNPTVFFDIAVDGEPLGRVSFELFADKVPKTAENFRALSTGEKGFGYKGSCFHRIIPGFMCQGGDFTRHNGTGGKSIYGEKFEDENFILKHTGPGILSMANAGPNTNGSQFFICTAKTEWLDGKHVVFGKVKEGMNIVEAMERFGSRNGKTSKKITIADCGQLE
KRAS G12V, sequence (P01116 other isoform, or with tags, fused parts or gaps G12V): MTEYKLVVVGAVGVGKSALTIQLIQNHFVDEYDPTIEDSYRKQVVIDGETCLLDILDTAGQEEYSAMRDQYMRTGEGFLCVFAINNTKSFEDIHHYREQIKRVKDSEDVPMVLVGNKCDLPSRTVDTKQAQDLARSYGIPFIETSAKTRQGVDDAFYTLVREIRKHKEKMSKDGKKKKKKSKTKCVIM
KRAS G12V, sequence (P62937 whole entry): as the sequence (P62937 whole entry) above
NRAS G12C, sequence (P01111 whole entry G12C): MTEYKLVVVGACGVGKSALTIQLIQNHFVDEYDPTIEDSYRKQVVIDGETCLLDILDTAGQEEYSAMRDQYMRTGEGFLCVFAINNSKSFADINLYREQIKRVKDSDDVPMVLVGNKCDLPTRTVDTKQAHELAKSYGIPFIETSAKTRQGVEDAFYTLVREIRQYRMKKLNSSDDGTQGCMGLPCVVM
NRAS G12C, sequence (P62937 whole entry): as the sequence (P62937 whole entry) above
KRAS G13C, sequence (P01116 other isoform, or with tags, fused parts or gaps G13C): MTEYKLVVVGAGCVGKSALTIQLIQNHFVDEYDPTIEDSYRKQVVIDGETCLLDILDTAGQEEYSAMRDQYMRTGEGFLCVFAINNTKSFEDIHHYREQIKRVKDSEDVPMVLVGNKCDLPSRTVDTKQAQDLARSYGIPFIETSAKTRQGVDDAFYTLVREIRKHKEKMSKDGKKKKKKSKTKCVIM
KRAS G13C, sequence (P62937 whole entry): as the sequence (P62937 whole entry) above
KRAS G13D, sequence (P01116 other isoform, or with tags, fused parts or gaps G13D): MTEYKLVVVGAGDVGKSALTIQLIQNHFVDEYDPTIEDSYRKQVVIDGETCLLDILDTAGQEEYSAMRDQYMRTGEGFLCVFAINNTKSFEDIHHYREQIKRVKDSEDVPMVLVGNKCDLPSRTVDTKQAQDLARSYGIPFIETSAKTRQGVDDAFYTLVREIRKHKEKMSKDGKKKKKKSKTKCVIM
KRAS G13D, sequence (P62937 whole entry): as the sequence (P62937 whole entry) above
KRAS WT, sequence (P01116 other isoform, or with tags, fused parts or gaps): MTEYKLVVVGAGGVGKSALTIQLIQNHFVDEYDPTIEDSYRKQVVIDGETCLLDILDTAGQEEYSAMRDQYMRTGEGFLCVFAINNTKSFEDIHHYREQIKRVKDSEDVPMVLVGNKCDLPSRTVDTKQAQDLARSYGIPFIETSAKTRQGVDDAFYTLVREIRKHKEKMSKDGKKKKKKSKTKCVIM
KRAS WT, sequence (P62937 whole entry): as the sequence (P62937 whole entry) above
KRAS G12C, sequence (P01116-2 other isoform, or with tags, fused parts or gaps G12C): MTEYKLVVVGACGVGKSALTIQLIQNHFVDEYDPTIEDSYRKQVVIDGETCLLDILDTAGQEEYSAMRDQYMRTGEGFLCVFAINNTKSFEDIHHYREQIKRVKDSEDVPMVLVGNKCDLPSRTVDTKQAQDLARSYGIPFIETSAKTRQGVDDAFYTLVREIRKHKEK
KRAS G12C, sequence (P62937 whole entry): as the sequence (P62937 whole entry) above
KRAS G12S, sequence (P01116 other isoform, or with tags, fused parts or gaps G12S): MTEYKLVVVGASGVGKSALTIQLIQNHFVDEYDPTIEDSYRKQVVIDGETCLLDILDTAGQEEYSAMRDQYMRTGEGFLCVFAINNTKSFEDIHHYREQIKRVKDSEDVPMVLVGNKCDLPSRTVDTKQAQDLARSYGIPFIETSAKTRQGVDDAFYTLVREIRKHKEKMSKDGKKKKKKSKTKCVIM
KRAS G12S, sequence (P62937 whole entry): as the sequence (P62937 whole entry) above

CCn1c(-c2cnccc2COC)c2c3cc(ccc31)-c1cc(O)cc(c1)C[C@H](NC(=O)[C@H](C(C)C)N(C)c1nccs1)C(=O)N1CCC[C@H](N1)C(=O)OCC(C)(C)C2 [Compound A86]
pEC50 [1]: > 5.30
pIC50 [2]: < 5.00
pIC50 (KRAS G12S): 5.00 to 6.00
pIC50 (KRAS WT): 5.00 to 6.00
pIC50 (KRAS G13C): 6.00 to 7.00
pIC50 (KRAS G12V): 5.00 to 6.00
pIC50 (KRAS G12D): < 5.00
pIC50 (KRAS G13D): 5.00 to 6.00
pIC50 (KRAS G12C): 6.00 to 7.00
pIC50 (NRAS G12C): 5.00 to 6.00

CCn1c(-c2cnccc2COC)c2c3cc(ccc31)-c1cc(O)cc(c1)C[C@H](NC(=O)[C@H](C(C)C)N(C)C(=O)C1CN(C)C1)C(=O)N1CCC[C@H](N1)C(=O)OCC(C)(C)C2 [Compound A88]
pEC50 [1]: > 5.30
pIC50 [2]: < 5.00
pIC50 (KRAS G12S): 6.00 to 7.00
pIC50 (KRAS WT): 6.00 to 7.00
pIC50 (KRAS G13C): 7.00 to 8.00
pIC50 (KRAS G12V): 5.00 to 6.00
pIC50 (KRAS G12D): 6.00 to 7.00
pIC50 (KRAS G13D): 7.00 to 8.00
pIC50 (KRAS G12C): 6.00 to 7.00
pIC50 (NRAS G12C): 6.00 to 7.00

CCn1c(-c2cccnc2[C@H](C)OC)c2c3cc(ccc31)-c1cccc(c1)C[C@H](NC(=O)[C@H](C(C)C)N(C)C(=O)[C@H]1CCN(C)C1)C(=O)N1CCC[C@H](N1)C(=O)OCC(C)(C)C2 [Compound A107]
pEC50 [1]: > 5.30
pIC50 [2]: 5.00 to 6.00
pIC50 (KRAS G12S): 5.00 to 6.00
pIC50 (KRAS WT): 5.00 to 6.00
pIC50 (KRAS G13C): 6.00 to 7.00
pIC50 (KRAS G12V): < 5.00
pIC50 (KRAS G12D): 5.00 to 6.00
pIC50 (KRAS G13D): 5.00 to 6.00
pIC50 (KRAS G12C): 5.00 to 6.00
pIC50 (NRAS G12C): 5.00 to 6.00

CCn1c(-c2cccnc2[C@H](C)OC)c2c3cc(ccc31)-c1cc(O)cc(c1)C[C@H](NC(=O)[C@@H]1[C@H](C)CCN1C(C)=O)C(=O)N1CCC[C@H](N1)C(=O)OCC(C)(C)C2 [Compound A144]
pEC50 [1]: > 5.30
pIC50 [2]: 5.00 to 6.00
pIC50 (KRAS G12S): 5.00 to 6.00
pIC50 (KRAS WT): 6.00 to 7.00
pIC50 (KRAS G13C): 6.00 to 7.00
pIC50 (KRAS G12V): 5.00 to 6.00
pIC50 (KRAS G12D): 5.00 to 6.00
pIC50 (KRAS G13D): 5.00 to 6.00
pIC50 (KRAS G12C): 6.00 to 7.00
pIC50 (NRAS G12C): 5.00 to 6.00

CCn1c(-c2cccnc2[C@H](C)OC)c2c3cc(ccc31)-c1cc(O)cc(c1)C[C@H](NC(=O)[C@H](C(C)C)N(C)C(=O)[C@H]1CC1(C)C)C(=O)N1CCC[C@H](N1)C(=O)OCC(C)(C)C2 [Compound A158]
pEC50 [1]: > 5.30
pIC50 [2]: 5.00 to 6.00
pIC50 (KRAS G12S): 6.00 to 7.00
pIC50 (KRAS WT): 6.00 to 7.00
pIC50 (KRAS G13C): 6.00 to 7.00
pIC50 (KRAS G12V): 6.00 to 7.00
pIC50 (KRAS G12D): 6.00 to 7.00
pIC50 (KRAS G13D): 6.00 to 7.00
pIC50 (KRAS G12C): 6.00 to 7.00
pIC50 (NRAS G12C): 6.00 to 7.00

CCn1c(-c2cccnc2[C@H](C)OC)c2c3cc(ccc31)-c1cc(O)cc(c1)C[C@H](NC(=O)[C@H]1C[C@@H]1C)C(=O)N1CCC[C@H](N1)C(=O)OCC(C)(C)C2 [Compound A182]
pEC50 [1]: > 5.30
pIC50 [2]: 5.00 to 6.00
pIC50 (KRAS G12S): 5.00 to 6.00
pIC50 (KRAS WT): 5.00 to 6.00
pIC50 (KRAS G13C): 6.00 to 7.00
pIC50 (KRAS G12V): 5.00 to 6.00
pIC50 (KRAS G12D): < 5.00
pIC50 (KRAS G13D): 5.00 to 6.00
pIC50 (KRAS G12C): 6.00 to 7.00
pIC50 (NRAS G12C): 5.00 to 6.00

CCn1c(-c2cccnc2[C@H](C)OC)c2c3cc(ccc31)-c1csc(n1)C[C@H](NC(=O)[C@H](C(C)C)N(C)C(=O)N1[C@H](C)COC[C@H]1C)C(=O)N1CCC[C@H](N1)C(=O)OCC(C)(C)C2 [Compound A275]
pEC50 [1]: > 5.30
pIC50 [2]: 6.00 to 7.00
pIC50 (KRAS G12S): 7.00 to 8.00
pIC50 (KRAS WT): 7.00 to 8.00
pIC50 (KRAS G13C): 7.00 to 8.00
pIC50 (KRAS G12V): 7.00 to 8.00
pIC50 (KRAS G12D): 6.00 to 7.00
pIC50 (KRAS G13D): 7.00 to 8.00
pIC50 (KRAS G12C): 7.00 to 8.00
pIC50 (NRAS G12C): 7.00 to 8.00

CCn1c(-c2cccnc2[C@H](C)OC)c2c3cc(ccc31)-c1csc(n1)C[C@H](NC(=O)[C@H](C(C)C)N(C)C(=O)N1CCN3CCOCC3C1)C(=O)N1CCC[C@H](N1)C(=O)OCC(C)(C)C2 (some centres unmarked) [Compound A296]
pEC50 [1]: > 5.30
pIC50 [2]: 7.00 to 8.00
pIC50 (KRAS G12S): 6.00 to 7.00
pIC50 (KRAS WT): 6.00 to 7.00
pIC50 (KRAS G13C): 6.00 to 7.00
pIC50 (KRAS G12V): 6.00 to 7.00
pIC50 (KRAS G12D): 5.00 to 6.00
pIC50 (KRAS G13D): 5.00 to 6.00
pIC50 (KRAS G12C): 6.00 to 7.00
pIC50 (NRAS G12C): 6.00 to 7.00

CCn1c(-c2cccnc2[C@H](C)OC)c2c3cc(ccc31)-c1cc(O)cc(c1)C[C@H](NC(=O)[C@H](C(C)C)N(C)C(=O)[C@@H]1CCN(C(=O)OC)C1)C(=O)N1CCC[C@H](N1)C(=O)OCC(C)(C)C2 [Compound A365]
pEC50 [1]: > 5.30
pIC50 [2]: 7.00 to 8.00
pIC50 (KRAS G12S): 7.00 to 8.00
pIC50 (KRAS WT): 7.00 to 8.00
pIC50 (KRAS G13C): 7.00 to 8.00
pIC50 (KRAS G12V): 7.00 to 8.00
pIC50 (KRAS G12D): 7.00 to 8.00
pIC50 (KRAS G13D): 7.00 to 8.00
pIC50 (KRAS G12C): 7.00 to 8.00
pIC50 (NRAS G12C): 7.00 to 8.00

CCn1c(-c2cccnc2[C@H](C)OC)c2c3cc(ccc31)-c1cc(O)cc(c1)C[C@H](NC(=O)[C@H](C(C)C)N(C)C(=O)[C@H]1CCN(C(=O)[C@@H]3CCCN3)C1)C(=O)N1CCC[C@H](N1)C(=O)OCC(C)(C)C2 [Compound A370]
pEC50 [1]: > 5.30
pIC50 [2]: 5.00 to 6.00
pIC50 (KRAS G12S): 7.00 to 8.00
pIC50 (KRAS WT): 7.00 to 8.00
pIC50 (KRAS G13C): 7.00 to 8.00
pIC50 (KRAS G12V): 7.00 to 8.00
pIC50 (KRAS G12D): 7.00 to 8.00
pIC50 (KRAS G13D): 7.00 to 8.00
pIC50 (KRAS G12C): 7.00 to 8.00
pIC50 (NRAS G12C): 7.00 to 8.00

CCn1c(-c2cccnc2[C@H](C)OC)c2c3cc(ccc31)-c1cc(O)cc(c1)C[C@H](NC(=O)[C@H](C(C)C)N(C)C(=O)[C@H]1CCN(C(=O)[C@H]3CCCN3C)C1)C(=O)N1CCC[C@H](N1)C(=O)OCC(C)(C)C2 [Compound A371]
pEC50 [1]: > 5.30
pIC50 [2]: 5.00 to 6.00
pIC50 (KRAS G12S): 7.00 to 8.00
pIC50 (KRAS WT): 7.00 to 8.00
pIC50 (KRAS G13C): 7.00 to 8.00
pIC50 (KRAS G12V): 7.00 to 8.00
pIC50 (KRAS G12D): 7.00 to 8.00
pIC50 (KRAS G13D): 7.00 to 8.00
pIC50 (KRAS G12C): 7.00 to 8.00
pIC50 (NRAS G12C): 7.00 to 8.00
